{
  "source": "patent US20070066680A1",
  "about": "“Benzofurans and benzothiophenes” (priority 2003, published 2007)",
  "key": {"[1]": {"tested_on": "isolated islets of Langerhans", "assay": "Insulin secretion in isolated rat islets of Langerhans, static incubation, RIA", "format": "cell-based", "settings": "90 minutes incubation, stimulation if factor >= 130%; for Insulin secretion stimulation factor, Product + G2.8 mM: glucose 2.8 mM; for Insulin secretion stimulation factor, Product + G8 mM: glucose 8 mM", "protocol": "Study of the Activity on Isolated Rat Islets\nEffect of the chemical compounds on insulin secretion as a function of the glucose concentration, in vitro, in isolated islets of Langerhans in static incubation (Table C):\nThe islets of Langerhans obtained by digestion of exocrine pancreatic tissue with collagenase, and then purified on Ficoll gradient, are incubated for 90 minutes in the presence of two concentrations of glucose, (2.8 mM or 8 mM), in the presence or absence of the chemical compound. The insulin secretion is assayed by RIA in the incubation medium.\nThe potential of the various chemical compounds to stimulate insulin secretion is estimated by calculating the stimulation factor*.\nA compound stimulates the secretion of insulin if this factor is greater than or equal to 130% for a given dose of glucose. [formula] • where: • G=secretion of insulin (pmol/min. islet) in the presence of glucose alone\nG+product=secretion of insulin (pmol/min. islet) in the presence of the same concentration of glucose and of the test chemical compound."}, "[2]": {"tested_on": "insulin secretion", "assay": "Test of insulin secretion according to Endocrinology, 1992 vol. 130 (1) pp. 167-178", "format": "cell-based", "settings": "Rattus norvegicus, INS1; compounds tested at 10^−5 M; read-out: SEC INS1 (% of insulin secretion)", "protocol": "Test of Insulin Secretion According to the Method Described in Endocrinology, 1992 vol. 130 (1) pp. 167-178\nThe insulin-secreting activities are collated in Table B. The compounds according to the invention were tested at a concentration of 10^−5 M."}, "[3]": {"tested_on": "NOSTZ diabetic rats", "assay": "Antidiabetic activity (glycaemia) in NOSTZ diabetic rats", "format": "in vivo, rat", "settings": "repeated for 4 days, blood two hours after the fourth treatment", "protocol": "Study of the Antidiabetic Activity in NOSTZ rats Effect/Dose of compound 15, in vivo, in the case of NOSTZ diabetic rats (Table D): NOSTZ rats, made diabetic by injection of steptozotocin on the day of birth (Portha et al.; 1974), are treated, orally, daily by administration of 50-100-200 mg/kg of body weight of compound 15, of 200 mg/kg of metformin (reference antidiabetic agent) or of methylcellulose (controls). Blood samples are taken from the anaesthetized animal two hours after the fourth treatment. The glycaemia is measured via the colorimetric method using glucose dehydrogenase. The antidiabetic activity of the compounds of the formula (I) orally was determined on an experimental model of non-insulin-dependent diabetes, induced in rats with steptozotocin. The model of non-insulin-dependent diabetes is obtained in the rats by means of a neonatal injection of steptozotocin. The diabetic rats used are eight weeks old. The animals are housed, from the day of birth to the day of the experiment, in an animal house at a regulated temperature of 21 to 22° C. and subjected to a fixed cycle of light (from 7 a.m. to 7 p.m.) and darkness (from 7 p.m. to 7 a.m.). Their food consisted of a maintenance diet, and water and food were given “ad libitum”, with the exception of fasting two hours before the tests, during which period the food is removed (post-absorptive state). The rats are treated orally for one (D1) or four (D4) days with the test product. Two hours after the final administration of the product and 30 minutes after anaesthetizing the animals with pentobarbital sodium (Nembutal®), a 300 μl blood sample is taken from the end of the tail."}},
  "note": "Marks after values point to notes of the source that are not given here.",
  "data": [
    {"smiles": "O=C(COc1c(C(=O)c2ccccc2)sc2ccccc12)c1ccc(Cl)cc1", "note": "[Product 1]", "values": [
      {"measurement": "Insulin secretion stimulation factor, Product + G2.8 mM", "setting": "[1]; product 10^−5 M", "value": 98, "unit": "%"},
      {"measurement": "Insulin secretion stimulation factor, Product + G8 mM", "setting": "[1]; product 10^−5 M", "value": 135, "unit": "%"},
      {"measurement": "activity at 10 µM", "setting": "[2]", "value": 206, "unit": "%"}
    ]},
    {"smiles": "COc1ccccc1C(=O)COc1c(C(=O)c2ccccc2)sc2ccccc12", "note": "[Product 3]", "values": [
      {"measurement": "activity at 10 µM", "setting": "[2]", "value": 244, "unit": "%"}
    ]},
    {"smiles": "COc1cccc(C(=O)COc2c(C(=O)c3ccccc3)sc3ccccc23)c1", "note": "[Product 8]", "values": [
      {"measurement": "activity at 10 µM", "setting": "[2]", "value": 193, "unit": "%"}
    ]},
    {"smiles": "COc1ccc(C(=O)COc2c(C(=O)c3ccccc3)sc3ccccc23)c(OC)c1", "note": "[Product 14]", "values": [
      {"measurement": "activity at 10 µM", "setting": "[2]", "value": 287, "unit": "%"}
    ]},
    {"smiles": "CC(C)(C)C(=O)COc1c(C(=O)c2ccccc2)sc2ccccc12", "note": "[Product 15, 1-(2-benzoylbenzo[b]thiophen-3-yloxy)-3,3-dimethylbutan-2-one]", "values": [
      {"measurement": "Insulin secretion stimulation factor, Product + G2.8 mM", "setting": "[1]; product 10^−5 M", "value": 119, "unit": "%"},
      {"measurement": "Insulin secretion stimulation factor, Product + G8 mM", "setting": "[1]; product 10^−5 M", "value": 152, "unit": "%"},
      {"measurement": "Insulin secretion stimulation factor, Product + G2.8 mM", "setting": "[1]; product 10^−6 M", "value": 125, "unit": "%"},
      {"measurement": "Insulin secretion stimulation factor, Product + G8 mM", "setting": "[1]; product 10^−6 M", "value": 183, "unit": "%"},
      {"measurement": "activity at 10 µM", "setting": "[2]", "value": 207, "unit": "%"},
      {"measurement": "Percentage of variation of glycaemia relative to the controls", "setting": "[3]; 50 mg/kg/day orally", "value": "−13", "unit": "%*"},
      {"measurement": "Percentage of variation of glycaemia relative to the controls", "setting": "[3]; 100 mg/kg/day orally", "value": "−23", "unit": "%**"},
      {"measurement": "Percentage of variation of glycaemia relative to the controls", "setting": "[3]; 200 mg/kg/day orally", "value": "−18", "unit": "%**"}
    ]},
    {"smiles": "N#Cc1ccc(C(=O)c2sc3ccccc3c2OCc2ccccc2C#N)cc1", "note": "[Product 42]", "values": [
      {"measurement": "activity at 10 µM", "setting": "[2]", "value": 283, "unit": "%"}
    ]},
    {"smiles": "N#Cc1ccc(C(=O)c2sc3ccccc3c2OCc2cccc(C#N)c2)cc1", "note": "[Product 43]", "values": [
      {"measurement": "Insulin secretion stimulation factor, Product + G2.8 mM", "setting": "[1]; product 10^−5 M", "value": 108, "unit": "%"},
      {"measurement": "Insulin secretion stimulation factor, Product + G8 mM", "setting": "[1]; product 10^−5 M", "value": 135, "unit": "%"},
      {"measurement": "activity at 10 µM", "setting": "[2]", "value": 257, "unit": "%"}
    ]},
    {"smiles": "N#Cc1ccc(C(=O)c2sc3ccccc3c2OCc2c(Cl)cccc2Cl)cc1", "note": "[Product 55]", "values": [
      {"measurement": "activity at 10 µM", "setting": "[2]", "value": 174, "unit": "%"}
    ]},
    {"smiles": "N#Cc1ccc(C(=O)c2sc3ccccc3c2OCc2ccccc2)cc1", "note": "[Product 59]", "values": [
      {"measurement": "activity at 10 µM", "setting": "[2]", "value": 229, "unit": "%"}
    ]},
    {"smiles": "CS(=O)(=O)c1ccc(COc2c(C(=O)c3ccc(C#N)cc3)sc3ccccc23)cc1", "note": "[Product 66]", "values": [
      {"measurement": "activity at 10 µM", "setting": "[2]", "value": 202, "unit": "%"}
    ]},
    {"smiles": "N#Cc1ccc(C(=O)c2sc3ccccc3c2OCC(=O)c2ccccc2)cc1", "note": "[Product 69]", "values": [
      {"measurement": "activity at 10 µM", "setting": "[2]", "value": 179, "unit": "%"}
    ]},
    {"smiles": "COc1ccccc1C(=O)COc1c(C(=O)c2ccc(C#N)cc2)sc2ccccc12", "note": "[Product 70]", "values": [
      {"measurement": "activity at 10 µM", "setting": "[2]", "value": 189, "unit": "%"}
    ]},
    {"smiles": "Cc1ccc(C(=O)COc2c(C(=O)c3ccc(C#N)cc3)sc3ccccc23)cc1", "note": "[Product 72]", "values": [
      {"measurement": "activity at 10 µM", "setting": "[2]", "value": 185, "unit": "%"}
    ]},
    {"smiles": "COc1ccccc1C(=O)COc1c(C(=O)c2ccccc2)oc2ccccc12", "note": "[Product 86]", "values": [
      {"measurement": "activity at 10 µM", "setting": "[2]", "value": 164, "unit": "%"}
    ]},
    {"smiles": "CN(C)C(=N)N=C(N)N", "note": "[metformin, reference compound]", "values": [
      {"measurement": "Percentage of variation of glycaemia relative to the controls", "setting": "[3]; 200 mg/kg/day orally", "value": "−29", "unit": "%**"}
    ]}
  ]
}
